This assay has as its system PK1 neuroblastoma cells exposed to TPrP. In words: cells. Conditions: Neuroblastoma cell, 96 h, read-out: TPrP EC50. The format is cell-based.

SMILES strings stand for the structures.

In general, EC50 refers to the concentration that produces a half-maximal response. `NS(=O)(=O)c1ccc(Nc2nc(-c3ccncc3)cs2)cc1` [SR-186, 4-((4-(pyridin-4-yl)thiazol-2-yl)amino)benzenesulfonamide]: the EC50 was 70 nM. The figure for `NS(=O)(=O)c1ccc(Nc2nc(-c3ccc(S(=O)(=O)N4CCOCC4)cc3)c(CO)s2)cc1` [SR-34764, 4-((5-(Hydroxymethyl)-4-(4-(morpholinosulfonyl)phenyl)thiazol-2-yl)amino)benzenesulfonamide] is 60 nM; for `NS(=O)(=O)c1ccc(Nc2nc(-c3ccc(S(=O)(=O)N4CCOCC4)cc3)cs2)cc1` [SR-34765, 4-((4-(4-(Morpholinosulfonyl)phenyl)thiazol-2-yl)amino)benzenesulfonamide] it is 70 nM. The figure for `NS(=O)(=O)c1ccc(Nc2nc(-c3ccc(S(=O)(=O)Nc4ccccc4)cc3)cs2)cc1` [SR-34767, N-Phenyl-4-(2-((4-sulfamoylphenyl)amino)thiazol-4-yl)benzenesulfonamide] is greater than 500 nM. In the case of `CCN(CC)S(=O)(=O)c1ccc(-c2csc(Nc3ccc(S(N)(=O)=O)cc3)n2)cc1` [SR-34768, N,N-diethyl-4-(2-((4-sulfamoylphenyl)amino)thiazol-4-yl)benzenesulfonamide] it was 150 nM. For `CN(C)S(=O)(=O)c1ccc(-c2csc(Nc3ccc(S(N)(=O)=O)cc3)n2)cc1` [SR-34769, N,N-dimethyl-4-(2-((4-sulfamoylphenyl)amino)thiazol-4-yl)benzenesulfonamide], the EC50 was 30 nM. Turning to `CNS(=O)(=O)c1ccc(-c2csc(Nc3ccc(S(N)(=O)=O)cc3)n2)cc1` [SR-34771, N-methyl-4-(2-((4-sulfamoylphenyl)amino)thiazol-4-yl)benzenesulfonamide], the EC50 was 25 nM. With `NS(=O)(=O)c1ccc(Nc2nc(-c3ccc(S(=O)(=O)N4CCCCC4)cc3)c(CO)s2)cc1` [SR-34772, 4-((5-(Hydroxymethyl)-4-(4-(piperidin-1-ylsulfonyl)phenyl)thiazol-2-yl)amino)benzenesulfonamide], the EC50 amounted to 400 nM. The figure for `CCN(CC)S(=O)(=O)c1ccc(-c2nc(Nc3ccc(S(N)(=O)=O)cc3)sc2CO)cc1` [SR-34774, N,N-diethyl-4-(5-(hydroxymethyl)-2-((4-sulfamoylphenyl)amino)thiazol-4-yl)benzenesulfonamide] is 150 nM. In the case of `CN(C)S(=O)(=O)c1ccc(-c2nc(Nc3ccc(S(N)(=O)=O)cc3)sc2CO)cc1` [SR-34775, 4-(5-(Hydroxymethyl)-2-((4-sulfamoylphenyl)amino)thiazol-4-yl)-N,N-dimethylbenzenesulfonamide] it was 60 nM; in that of `CNS(=O)(=O)c1ccc(-c2nc(Nc3ccc(S(N)(=O)=O)cc3)sc2CO)cc1` [SR-34777, 4-(5-(Hydroxymethyl)-2-((4-sulfamoylphenyl)amino)thiazol-4-yl)-N-methylbenzenesulfonamide], 70 nM.

In the case of `CN(C)S(=O)(=O)c1ccc(-c2csc(Nc3ccc(S(C)(=O)=O)cc3)n2)cc1` [SR-34965, N,N-dimethyl-4-(2-((4-(methylsulfonyl)phenyl)amino)thiazol-4-yl)benzenesulfonamide], the EC50 is 100 nM.

For `CCN(CC)S(=O)(=O)c1ccc(-c2csc(Nc3ccc(S(C)(=O)=O)cc3)n2)cc1` [SR-34966, N,N-diethyl-4-(2-((4-(methylsulfonyl)phenyl)amino)thiazol-4-yl)benzenesulfonamide], the EC50 was greater than 500 nM. The figure for `CC(C)NS(=O)(=O)c1ccc(-c2csc(Nc3ccc(S(C)(=O)=O)cc3)n2)cc1` [SR-34967, N-isopropyl-4-(2-((4-(methylsulfonyl)phenyl)amino)thiazol-4-yl)benzenesulfonamide] is 500 nM; for `CNS(=O)(=O)c1ccc(-c2nc(Nc3ccc(S(C)(=O)=O)cc3)sc2CO)cc1` [SR-34968, 4-(5-(Hydroxymethyl)-2-((4-(methylsulfonyl)phenyl)amino)thiazol-4-yl)-N-methylbenzenesulfonamide] it is greater than 500 nM. In the case of `CN(C)S(=O)(=O)c1ccc(-c2nc(Nc3ccc(S(C)(=O)=O)cc3)sc2CO)cc1` [SR-34969, 4-(5-(Hydroxymethyl)-2-((4-(methylsulfonyl)phenyl)amino)thiazol-4-yl)-N,N-dimethylbenzenesulfonamide] it was 350 nM; in that of `CCN(CC)S(=O)(=O)c1ccc(-c2nc(Nc3ccc(S(C)(=O)=O)cc3)sc2CO)cc1` [SR-34970, N,N-diethyl-4-(5-(hydroxymethyl)-2-((4-(methylsulfonyl)phenyl)amino)thiazol-4-yl)benzenesulfonamide], greater than 500 nM. The figure for `CC(C)NS(=O)(=O)c1ccc(-c2nc(Nc3ccc(S(C)(=O)=O)cc3)sc2CO)cc1` [SR-34971, 4-(5-(Hydroxymethyl)-2-((4-(methylsulfonyl)phenyl)amino)thiazol-4-yl)-N-isopropylbenzenesulfonamide] is greater than 500 nM; for `CS(=O)(=O)c1ccc(Nc2nc(-c3ccnc(Cl)c3)cs2)cc1F` [SR-34972, 4-(2-Chloropyridin-4-yl)-N-(3-fluoro-4-(methylsulfonyl)phenyl)thiazol-2-amine] it is 125 nM. Regarding `Cc1cc(-c2csc(Nc3ccc(S(C)(=O)=O)c(F)c3)n2)ccn1` [SR-34973, N-(3-fluoro-4-(methylsulfonyl)phenyl)-4-(2-methylpyridin-4-yl)thiazol-2-amine], the EC50 was 70 nM. The figure for `COc1cc(-c2csc(Nc3ccc(S(C)(=O)=O)c(F)c3)n2)ccn1` [SR-34975, N-(3-fluoro-4-(methylsulfonyl)phenyl)-4-(2-methoxypyridin-4-yl)thiazol-2-amine] is 170 nM; for `COc1cc(-c2csc(Nc3ccc(S(C)(=O)=O)c(F)c3)n2)cc(OC)n1` [SR-34976, 4-(2,6-Dimethoxypyridin-4-yl)-N-(3-fluoro-4-(methylsulfonyl)phenyl)thiazol-2-amine] it is 320 nM; for `CS(=O)(=O)c1ccc(Nc2nc(-c3ccnc(Cl)c3)c(CO)s2)cc1F` [SR-34977, (4-(2-Chloropyridin-4-yl)-2-((3-fluoro-4-(methylsulfonyl)phenyl)amino)thiazol-5-yl)methanol] it is 360 nM. The figure for `Cc1cc(-c2nc(Nc3ccc(S(C)(=O)=O)c(F)c3)sc2CO)ccn1` [SR-34978, (2-((3-Fluoro-4-(methylsulfonyl)phenyl)amino)-4-(2-methylpyridin-4-yl)thiazol-5-yl)methanol] is 320 nM; for `Cc1cc(-c2nc(Nc3ccc(S(C)(=O)=O)c(F)c3)sc2CO)cc(C)n1` [SR-34979, (4-(2,6-Dimethylpyridin-4-yl)-2-((3-fluoro-4-(methylsulfonyl)phenyl)amino)thiazol-5-yl)methanol] it is 360 nM; for `COc1cc(-c2nc(Nc3ccc(S(C)(=O)=O)c(F)c3)sc2CO)ccn1` [SR-34980, (2-((3-Fluoro-4-(methylsulfonyl)phenyl)amino)-4-(2-methoxypyridin-4-yl)thiazol-5-yl)methanol] it is 320 nM. In the case of `COc1cc(-c2nc(Nc3ccc(S(C)(=O)=O)c(F)c3)sc2CO)cc(OC)n1` [SR-34981, (4-(2,6-Dimethoxypyridin-4-yl)-2-((3-fluoro-4-(methylsulfonyl)phenyl)amino)thiazol-5-yl)methanol] it was greater than 500 nM. Consider `Cc1cc(-c2csc(Nc3ccc(S(C)(=O)=O)c(C(F)(F)F)c3)n2)ccn1` [SR-34983, 4-(2-Methylpyridin-4-yl)-N-(4-(methylsulfonyl)-3-(trifluoromethyl)phenyl)thiazol-2-amine], for which the EC50 turned out to be 40 nM.

Consider `COc1cc(-c2csc(Nc3ccc(S(C)(=O)=O)c(C(F)(F)F)c3)n2)ccn1` [SR-34985, 4-(2-Methoxypyridin-4-yl)-N-(4-(methylsulfonyl)-3-(trifluoromethyl)phenyl)thiazol-2-amine], for which the EC50 turned out to be 335 nM. The figure for `COc1cc(-c2csc(Nc3ccc(S(C)(=O)=O)c(C(F)(F)F)c3)n2)cc(OC)n1` [SR-34986, 4-(2,6-Dimethoxypyridin-4-yl)-N-(4-(methylsulfonyl)-3-(trifluoromethyl)phenyl)thiazol-2-amine] is greater than 500 nM; for `CS(=O)(=O)c1ccc(Nc2nc(-c3ccnc(Cl)c3)c(CO)s2)cc1C(F)(F)F` [SR-34987, (4-(2-Chloropyridin-4-yl)-2-((4-(methylsulfonyl)-3-(trifluoromethyl)phenyl)amino)thiazol-5-yl)methanol] it is 480 nM.

As for `Cc1cc(-c2nc(Nc3ccc(S(C)(=O)=O)c(C(F)(F)F)c3)sc2CO)ccn1` [SR-34988, (4-(2-Methylpyridin-4-yl)-2-((4-(methylsulfonyl)-3-(trifluoromethyl)phenyl)amino)thiazol-5-yl)methanol], the EC50 was found to be 335 nM. The figure for `Cc1cc(-c2nc(Nc3ccc(S(C)(=O)=O)c(C(F)(F)F)c3)sc2CO)cc(C)n1` [SR-34989, (4-(2,6-Dimethylpyridin-4-yl)-2-((4-(methylsulfonyl)-3-(trifluoromethyl)phenyl)amino)thiazol-5-yl)methanol] is 325 nM. The figure for `COc1cc(-c2nc(Nc3ccc(S(C)(=O)=O)c(C(F)(F)F)c3)sc2CO)ccn1` [SR-34990, (4-(2-Methoxypyridin-4-yl)-2-((4-(methylsulfonyl)-3-(trifluoromethyl)phenyl)amino)thiazol-5-yl)methanol] is 480 nM; for `COc1cc(-c2nc(Nc3ccc(S(C)(=O)=O)c(C(F)(F)F)c3)sc2CO)cc(OC)n1` [SR-34991, (4-(2,6-Dimethoxypyridin-4-yl)-2-((4-(methylsulfonyl)-3-(trifluoromethyl)phenyl)amino)thiazol-5-yl)methanol] it is greater than 500 nM; for `Cc1cc(-c2nc(Nc3ccc(S(C)(=O)=O)c(Cl)c3)sc2CO)cc(C)n1` [SR-34995, (2-((3-Chloro-4-(methylsulfonyl)phenyl)amino)-4-(2,6-dimethylpyridin-4-yl)thiazol-5-yl)methanol] it is 115 nM. The figure for `COc1cc(-c2nc(Nc3ccc(S(C)(=O)=O)c(Cl)c3)sc2CO)ccn1` [SR-34996, (2-((3-Chloro-4-(methylsulfonyl)phenyl)amino)-4-(2-methoxypyridin-4-yl)thiazol-5-yl)methanol] is 170 nM. As for `COCc1sc(Nc2ccc(S(C)(=O)=O)cc2)nc1-c1ccnc(C)c1` [SR-35364, 5-(Methoxymethyl)-4-(2-methylpyridin-4-yl)-N-(4-(methylsulfonyl)phenyl)thiazol-2-amine], the EC50 was 230 nM.
